Measurements published in patent US20250073358A1, “AROMATIC VINYL COMPOUND, METAL COMPLEX THEREOF, AND PREPARATION METHOD THEREFOR AND USE THEREOF” (SHANGHAI MAXINOVEL PHARMACEUTICALS CO., LTD., priority 2021, published 2025).

Tests used:
[1] = system: tumor; assay: Inhibitory effect on tumor in tumor-bearing mice; format: in vivo, C57/BL6 mice; details: tail vein injection, 45 MBq per mouse, compared with the control group (PBS)
Excerpt: • 1. Inhibitory effect of compound 78 on tumor • 1.1 Experimental animal information: tumor-bearing C57/BL6 mice; SPF grade; weight range: 17-20 g; Shanghai Qi'up Biomedical Technology Co., Ltd. • 1.2 Experimental process
Ten tumor-bearing mice with tumor volumes of 10-100 mm^3 were systematically and randomly divided into 2 groups according to tumor size, with 5 mice in each group, corresponding to PBS and compound 78 respectively. After anesthesia with isoflurane, tumor-bearing mice were injected into the tail vein with compound 78 with 45 MBq (approximately 1.2 mCi) per mouse and a volume of 0.2 mL. After administration, the tumor size and weight of the animals were measured periodically, and the tumor growth curve was drawn to understand the inhibitory effect of the drug on tumor.

[2] = molecular target: PD-1/PD-L1 (Homo sapiens (Human), UniProt Q9NZQ7); assay: Homogenouse Time-Resolved Fluorescence (HTRF) binding assay, PD-1/PD-L1
PD-1/PD-L1, sequence (Q9NZQ7 19-238): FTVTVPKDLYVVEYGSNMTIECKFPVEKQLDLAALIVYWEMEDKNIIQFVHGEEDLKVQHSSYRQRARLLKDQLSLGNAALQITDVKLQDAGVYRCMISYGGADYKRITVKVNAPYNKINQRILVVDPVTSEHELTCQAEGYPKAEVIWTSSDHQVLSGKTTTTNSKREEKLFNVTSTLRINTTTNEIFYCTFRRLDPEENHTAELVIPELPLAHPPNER
Protocol: Homogenouse Time-Resolved Fluorescence (HTRF) binding assay was used to detect the binding ability of the compound of the present disclosure to PD-1/PD-L1.
The purchased kit (CisBio, #64CUS000C-1) contains reagents required for experiments such as PD-1, PD-L1, anti-tag1-Eu, Anti-tag2-XL665, Dilute Buffer, and Detection Buffer.
• 1. The compound was configured with 100% DMSO into 10 concentrations with a concentration gradient of 3 times. • 2. The DMSO solution of the compound was added to Dilute Buffer solution, and the mixture was mixed well and transferred to a 96-well plate. • 3. PD-L1 was diluted with Dilute Buffer solution and then added to the above 96-well plate. • 4. PD-1 was diluted with Dilute Buffer solution and then added to the above 96-well plate, and incubated at room temperature for 30 minutes. • 5. One part of anti-tag1-Eu and one part of Anti-tag2-XL665 were added to Detection Buffer solution, and the mixture was mixed well and transferred to the above 96-well plate. • 6. The mixture in the 96-well plate was incubated at room temperature for 1 to 24 hours. • 7. The HTRF values were read with Envision.

SMILES | IC50 [2] [nM] | inhibition of tumor growth [1]
Cc1cc(CN2CCCC[C@H]2C(=O)O)c(OCCCCCN2CCN(CC(=O)O)CCN(CC(=O)O)CCN(CC(=O)O)CC2)cc1/C=C/c1cccc(-c2ccccc2)c1C [Compound 72] | 112 | very good therapeutic effects on inhibiting tumor growth
Cc1cc(CN2CCCC[C@H]2C(=O)O)c(OCCCCCN2CCN(CC(=O)O)CCN(CC(=O)O)CCN(CC(=O)O)CC2)cc1/C=C/c1cccc(-c2ccccc2)c1C [Compound 71] | 13.2 | –
N#Cc1c(-c2ccccc2)ccnc1/C=C/c1cc(OCC2CCN(C(=O)CN3CCN(CC(=O)[O-])CCN(CC(=O)[O-])CCN(CC(=O)[O-])CC3)CC2)c(CN2CCCC[C@H]2C(=O)O)cc1C(F)(F)F.[Lu+3] [Compound 44] | – | very good therapeutic effects on inhibiting tumor growth
Cc1c(/C=C/c2cc(OCCNC(=O)C3CCN(C(=O)CN4CCN(CC(=O)O)CCN(CC(=O)O)CCN(CC(=O)O)CC4)CC3)c(CN3CCCC[C@H]3C(=O)O)cc2C(F)(F)F)cccc1-c1ccccc1 [Compound 38] | 1.13 | very good therapeutic effects on inhibiting tumor growth
Cc1cc(CN2CCCC[C@H]2C(=O)O)c(OCCOC(=O)CN2CCN(CC(=O)[O-])CCN(CC(=O)[O-])CCN(CC(=O)[O-])CC2)cc1/C=C/c1cccc(-c2ccccc2)c1C#N.[177Lu+3] [Compound 76] | – | very good therapeutic effects on inhibiting tumor growth
Cc1c(/C=C/c2cc(OCCNC(=O)C3CCC(CNC(=O)CN4CCN(CC(=O)O)CCN(CC(=O)O)CCN(CC(=O)O)CC4)CC3)c(CN3CCCC[C@H]3C(=O)O)cc2C(F)(F)F)cccc1-c1ccccc1 (stereo partly shown) [Compound 9] | 1.07 | –
Cc1c(/C=C/c2cc(OCCNC(=O)C3CCN(C(=O)CN4CCN(CC(=O)O)CCN(CC(=O)O)CCN(CC(=O)O)CC4)CC3)c(CN3CCCC[C@H]3C(=O)O)cc2C(F)(F)F)cccc1-c1ccccc1 [Compound 18] | 0.901 | –
Cc1ccc(CCCC(=O)NCCCC[C@H](NC(=O)CN2CCN(CC(=O)O)CCN(CC(=O)O)CCN(CC(=O)O)CC2)C(=O)NCCCCCCOc2cc(/C=C/c3cccc(-c4ccccc4)c3C)c(C(F)(F)F)cc2CN2CCCC[C@H]2C(=O)O)cc1 [Compound 25] | 16.2 | –
Cc1ccc(CCCC(=O)NCCCC[C@H](NC(=O)CN2CCN(CC(=O)O)CCN(CC(=O)O)CCN(CC(=O)O)CC2)C(=O)NCC2CCC(C(=O)NCCOc3cc(/C=C/c4cccc(-c5ccccc5)c4C)c(C(F)(F)F)cc3CN3CCCC[C@H]3C(=O)O)CC2)cc1 (stereo partly shown) [Compound 22] | 5.03 | very good therapeutic effects on inhibiting tumor growth
Cc1c(/C=C/c2cc(OCC3CCN(C(=O)CN4CCN(CC(=O)O)CCN(CC(=O)O)CCN(CC(=O)O)CC4)CC3)c(CN3CCCC[C@H]3C(=O)O)cc2C(F)(F)F)cccc1-c1ccccc1 [Compound 20] | 1.01 | very good therapeutic effects on inhibiting tumor growth
Cc1c(/C=C/c2cc(OCCCCCCNC(=O)CN3CCN(CC(=O)O)CCN(CC(=O)O)CCN(CC(=O)O)CC3)c(CN3CCCC[C@H]3C(=O)O)cc2C(F)(F)F)cccc1-c1ccccc1 [Compound 23] | 0.833 | –
Cc1ccc(CCCC(=O)NCCCC[C@H](NC(=O)CN2CCN(CC(=O)O)CCN(CC(=O)O)CCN(CC(=O)O)CC2)C(=O)NCC2CCC(C(=O)NCCOc3cc(/C=C/c4cccc(-c5ccccc5)c4C)c(C(F)(F)F)cc3CN3CCCC[C@H]3C(=O)O)CC2)cc1 (stereo partly shown) [Compound 21] | 3.74 | –
N#Cc1c(-c2ccccc2)ccnc1/C=C/c1cc(OCC2CCN(C(=O)CN3CCN(CC(=O)O)CCN(CC(=O)O)CC3)CC2)c(CN2CCCC[C@H]2C(=O)O)cc1C(F)(F)F [Compound 59] | 5.47 | –
Cc1c(/C=C/c2cc(OCCOCCN3CCN(CC(=O)[O-])CCN(CC(=O)[O-])CCN(CC(=O)[O-])CC3)c(CN3CCCC[C@H]3C(=O)O)cc2C(F)(F)F)cccc1-c1ccccc1.[177Lu+3] [Compound 77] | – | very good therapeutic effects on inhibiting tumor growth
N#Cc1c(-c2ccccc2)ccnc1/C=C/c1cc(OCCCCCN2CCN(CC(=O)O)CCN(CC(=O)O)CC2)c(CN2CCCC[C@H]2C(=O)O)cc1C(F)(F)F [Compound 57] | 4.83 | –
Cc1c(/C=C/c2cc(OCC3CCN(C(=O)CN4CCN(CC(=O)O)CCN(CC(=O)O)CCN(CC(=O)O)CC4)CC3)c(CN3CCCC[C@H]3C(=O)O)cc2C(F)(F)F)cccc1-c1ccccc1 [Compound 19] | 0.869 | –

More lines, main results first:

IC50 [2] [nM] | SMILES | inhibition of tumor growth [1]
9.22 | Cc1ccc(CCCC(=O)NCCCC[C@H](NC(=O)CN2CCN(CC(=O)O)CCN(CC(=O)O)CCN(CC(=O)O)CC2)C(=O)NCCOCCOc2cc(/C=C/c3cccc(-c4ccccc4)c3C)c(C(F)(F)F)cc2CN2CCCC[C@H]2C(=O)O)cc1 [Compound 30] | –
32.5 | Cc1ccc(CCCC(=O)NCCCC[C@H](NC(=O)CN2CCN(CC(=O)O)CCN(CC(=O)O)CCN(CC(=O)O)CC2)C(=O)NCCCCOc2cc(/C=C/c3cccc(-c4ccccc4)c3C)c(C(F)(F)F)cc2CN2CCCC[C@H]2C(=O)O)cc1 [Compound 12] | very good therapeutic effects on inhibiting tumor growth
300 | Cc1ccc(CCCC(=O)NCCCC[C@H](NC(=O)CN2CCN(CC(=O)O)CCN(CC(=O)O)CCN(CC(=O)O)CC2)C(=O)NCCOc2cc(/C=C/c3cccc(-c4ccccc4)c3C)c(C(F)(F)F)cc2CN2CCCC[C@H]2C(=O)O)cc1 [Compound 13] | very good therapeutic effects on inhibiting tumor growth
1.29 | Cc1c(/C=C/c2cc(OCCOCCN3CCN(CC(=O)O)CCN(CC(=O)O)CCN(CC(=O)O)CC3)c(CN3CCCC[C@H]3C(=O)O)cc2C(F)(F)F)cccc1-c1ccccc1 [Compound 2] | –
0.603 | Cc1c(/C=C/c2cc(OCCOCCNC(=O)CN3CCN(CC(=O)O)CCN(CC(=O)O)CCN(CC(=O)O)CC3)c(CN3CCCC[C@H]3C(=O)O)cc2C(F)(F)F)cccc1-c1ccccc1 [Compound 31] | –
2.66 | Cc1c(/C=C/c2cc(OCCOCCN3CCN(CC(=O)O)CCN(CC(=O)O)CCN(CC(=O)O)CC3)c(CN3CCCC[C@H]3C(=O)O)cc2C(F)(F)F)cccc1-c1ccccc1 [Compound 6] | very good therapeutic effects on inhibiting tumor growth
12.4 | Cc1ccc(CCCC(=O)NCCCC[C@H](NC(=O)CN2CCN(CC(=O)O)CCN(CC(=O)O)CCN(CC(=O)O)CC2)C(=O)NCCOCCOc2cc(/C=C/c3cccc(-c4ccccc4)c3C)c(C(F)(F)F)cc2CN2CCCC[C@H]2C(=O)O)cc1 [Compound 32] | very good therapeutic effects on inhibiting tumor growth
24.8 | Cc1c(/C=C/c2cc(OCCOCCN3CCN(CC(=O)O)CCN(CC(=O)O)CCN(CC(=O)O)CC3)c(CN3CCCC[C@@H]3C(=O)O)cc2C(F)(F)F)cccc1-c1ccccc1 [Compound 69] | –
0.888 | Cc1c(/C=C/c2cc(OCCCCNC(=O)CN3CCN(CC(=O)O)CCN(CC(=O)O)CCN(CC(=O)O)CC3)c(CN3CCCC[C@H]3C(=O)O)cc2C(F)(F)F)cccc1-c1ccccc1 [Compound 4, (2S)-1-({4-[(1E)-2-(2-Methyl-3-phenylphenyl)vinyl]-5-(trifluoromethyl)-2-{[4-({2-[4,7,10-tris(carboxymethyl)-1,4,7,10-tetraazacyclododecan-1-yl]acetyl}amino)butyl]oxy}phenyl}methyl)hexahydropyridine-2-carboxylic acid] | –
0.95 | Cc1c(/C=C/c2cc(OCCNC(=O)C3CCC(CNC(=O)CN4CCN(CC(=O)O)CCN(CC(=O)O)CCN(CC(=O)O)CC4)CC3)c(CN3CCCC[C@H]3C(=O)O)cc2C(F)(F)F)cccc1-c1ccccc1 (stereo partly shown) [Compound 14] | very good therapeutic effects on inhibiting tumor growth
47.7 | Cc1c(/C=C/c2cc(OCCOCCN3CCN(CC(=O)O)CCN(CC(=O)O)CCN(CC(=O)O)CC3)c(CN3CCCC[C@@H]3C(=O)O)cc2C(F)(F)F)cccc1-c1ccccc1 [Compound 70] | very good therapeutic effects on inhibiting tumor growth
3.16 | Cc1c(/C=C/c2cc(OCCNC(=O)CN3CCN(CC(=O)O)CCN(CC(=O)O)CCN(CC(=O)O)CC3)c(CN3CCCC[C@H]3C(=O)O)cc2C(F)(F)F)cccc1-c1ccccc1 [Compound 3, (2S)-1-({4-[(1E)-2-(2-Methyl-3-phenylphenyl)vinyl]-5-(trifluoromethyl)-2-{[2-({2-[4,7,10-tris(carboxymethyl)-1,4,7,10-tetraazacyclododecan-1-yl]acetyl}amino)ethyl]oxy}phenyl}methyl)hexahydropyridine-2-carboxylic acid] | –
1.42 | Cc1c(/C=C/c2cc(OCCCCCNC(=O)CN3CCN(CC(=O)O)CCN(CC(=O)O)CCN(CC(=O)O)CC3)c(CN3CCCC[C@H]3C(=O)O)cc2C(F)(F)F)cccc1-c1ccccc1 [Compound 16] | –
169 | Cc1ccc(CCCC(=O)NCCCC[C@H](NC(=O)CN2CCN(CC(=O)O)CCN(CC(=O)O)CCN(CC(=O)O)CC2)C(=O)NCCOc2cc(/C=C/c3cccc(-c4ccccc4)c3C)c(C(F)(F)F)cc2CN2CCCC[C@H]2C(=O)O)cc1 [Compound 10] | –
